Where a name gives a salt, the structure may show the parent alone.
| SMILES | melting point |
| --- | --- |
| CCN1CCc2sc3ncn(CCN4CCN(c5cccc6c5CCCC6)CC4)c(=O)c3c2C1 (as salt: hydrochloride) [Example 12, 3,4,5,6,7,8-Hexahydro-6-ethyl-3-[2-(4-tetralin-5-yl-piperazin-1-yl)ethyl]pyrido[3′,4′:4,5]thieno[2,3-d]pyrimidin-4-one] | 287 °C |
| Cc1c(C(=O)N(C)C)sc2ncn(CCN3CCN(c4ccccc4C#N)CC3)c(=O)c12 (as salt: hydrochloride) [Example 15, 3,4-Dihydro-5-methyl-6-dimethylcarbamoyl-3-[2-(4-(2-cyanophenyl)piperazin-1-yl)ethyl]thieno[2,3-d]pyrimidin-4-one] | 210 °C |
| CCN1CCc2sc3ncn(CCN4CCCN(c5cccc6ccccc56)CC4)c(=O)c3c2C1 (as salt: hydrochloride) [Example 17, 3,4,5,6,7,8-Hexahydro-6-ethyl-3-[2-(4-naphth-1-ylhexahydro-1,4-diazepin-1-yl)ethyl]pyrido[3′,4′:4,5]thieno[2,3-d]-pyrimidin-4-one] | 276 to 280 °C |
| Cc1c(C(=O)N(C)C)sc2ncn(CCN3CCN(c4ncnc5ccccc45)CC3)c(=O)c12 (as salt: hydrochloride) [Example 29, 3,4-Dihydro-5-methyl-6-dimethylcarbamoyl-3-[2-(4-quinazolin-4-ylpiperazin-1-yl)ethyl]thieno[2,3-d]pyrimidin-4-one] | 295 to 300 °C |
| CN1CCc2c(sc3ncn(CCN4CCN(c5ncccn5)CC4)c(=N)c23)C1 (as salt: tartrate) [Example 20, 3,4,5,6,7,8-Hexahydro-7-methyl-3-[2-(4-pyrimidin-2-yl-piperazin-1-yl)ethyl]pyrido[4′,3′:4,5]thieno[2,3-d]-pyrimidin-4-imine] | 112 to 114 °C (dec.) |
| Cc1c(C(=O)N(C)C)sc2ncn(CCN3CCN(c4cccc5ccccc45)CC3)c(=O)c12 [Example 3, 3,4-Dihydro-5-methyl-6-dimethylcarbamoyl-3-[2-(4-(1-naphthyl)piperazin-1-yl)ethyl]thieno[2,3-d]pyrimidin-4-one] | 190 to 191 °C |
| Cc1ccc2ccccc2c1N1CCN(CCn2cnc3sc(C(=O)N(C)C)c(C)c3c2=O)CC1 [Example 4, 3,4-Dihydro-5-methyl-6-dimethylcarbamoyl-3-[2-(4-(2-methyl-1-naphthyl)piperazin-1-yl)ethyl]-thieno[2,3-d]pyrimidin-4-one] | 178 to 180 °C |
| CCN1CCc2sc3ncn(CCN4CCN(c5ccccc5Cl)CC4)c(=O)c3c2C1 [Example 5, 3,4,5,6,7,8-Hexahydro-6-ethyl-3-[2-(4-(2-chlorophenyl)-piperazin-1-yl)ethyl]pyrido[3′,4′:4,5]thieno[2,3-d]-pyrimidin-4-one] | 148 to 150 °C |
| Cc1c(C(=O)N(C)C)sc2ncn(CCN3CCN(c4cccc(C(F)(F)F)c4)CC3)c(=O)c12 [Example 7, 3,4-Dihydro-5-methyl-6-dimethylcarbamoyl-3-[2-(4-(3-trifluoromethylphenyl)piperazin-1-yl)ethyl]thieno[2,3-d]-pyrimidin-4-one] | 146 °C |
| CCOC(=O)N1Cc2sc3ncn(CCN4CCN(c5cccc6ccccc56)CC4)c(=O)c3c2C1 [Example 8, 3,4,5,7-Tetrahydro-6-carboethoxy-3-[2-(4-(1-naphthyl)-piperazin-1-yl)ethyl]pyrrolo[3′,4′:4,5]thieno[2,3-d]-pyrimidin-4-one] | 190 to 192 °C |
| CCOC(=O)N1Cc2sc3ncn(CCN4CCN(c5ncccn5)CC4)c(=O)c3c2C1 [Example 11, 3,4,5,7-Tetrahydro-6-carboethoxy-3-[2-(4-pyrimidin-2-yl-piperazin-1-yl)ethyl]pyrrolo[3′,4′:4,5]thieno[2,3-d]-pyrimidin-4-one] | 166 °C |
| Cc1c(C(=O)N(C)C)sc2ncn(CCN3CCN(c4cccc5c4CCCC5)CC3)c(=O)c12 [Example 13, 3,4-Dihydro-5-methyl-6-dimethylcarbamoyl-3-[2-(4-tetralin-5-ylpiperazin-1-yl)ethyl]thieno[2,3-d]pyrimidin-4-one] | 174 °C |
| Cc1c(C(=O)N(C)C)sc2ncn(CCN3CCN(c4cccc5c4CCC5)CC3)c(=O)c12 [Example 14, 3,4-Dihydro-5-methyl-6-dimethylcarbamoyl-3-[2-(4-indan-4-ylpiperazin-1-yl)ethyl]thieno[2,3-d]pyrimidin-4-one] | 153 °C |
| COc1ccccc1N1CCN(CCCn2cnc3sc4c(c3c2=N)CCN(C)C4)CC1 [Example 15, 3,4,5,6,7,8-Hexahydro-7-methyl-3-[3-(4-(2-methoxyphenyl)-piperazin-1-yl)propyl]pyrido[4′,3′:4,5]thieno[2,3-d]pyrimidin-4-imine] | 112 to 114 °C |
| N=c1c2c3c(sc2ncn1CCN1CCN(c2ccccc2)CC1)CN(Cc1ccccc1)CC3 [Example 17, 3,4,5,6,7,8-Hexahydro-7-benzyl-3-[2-(4-phenylpiperazin-1-yl)-ethyl]pyrido[4′,3′:4,5]thieno[2,3-d]pyrimidin-4-imine] | 168 to 170 °C |
| COc1ccccc1N1CCN(CCCn2cnc3sc4c(c3c2=O)CCN(Cc2ccccc2)C4)CC1 [Example 18, 3,4,5,6,7,8-Hexahydro-7-benzyl-3-[3-(4-(2-methoxyphenyl)-piperazin-1-yl)propyl]pyrido[4′,3′:4,5]thieno[2,3-d]-pyrimidin-4-one] | 66 to 67 °C |

| SMILES | melting point |
| --- | --- |
| O=c1c2c3c(sc2ncn1CCN1CCN(c2ccccc2)CC1)CN(Cc1ccccc1)CC3 [Example 19, 3,4,5,6,7,8-Hexahydro-7-benzyl-3-[2-(4-phenylpiperazin-1-yl)-ethyl]pyrido[4′,3′:4,5]thieno[2,3-d]pyrimidin-4-one] | 70 to 71 °C |
| CN1CCc2c(sc3ncn(CCN4CCN(c5ncccn5)CC4)c(=O)c23)C1 [Example 27, 3,4,5,6,7,8-Hexahydro-7-methyl-3-[2-(4-pyrimidin-2-ylpiperazin-1-yl)ethyl]pyrido[4′,3′:4,5]thieno[2,3-d]-pyrimidin-4-one] | 146 to 148 °C |
| CN1CCc2c(sc3ncn(CCCN4CCN(c5ccccc5O)CC4)c(=N)c23)C1 [Example 29, 3,4,5,6,7,8-Hexahydro-7-methyl-3-[3-(4-(2-hydroxyphenyl)-piperazin-1-yl)propyl]pyrido[4′,3′:4,5]thieno[2,3-d]-pyrimidin-4-imine] | 164 to 166 °C |
| COc1ccc(N2CCN(CCn3cnc4sc(C(=O)N(C)C)c(C)c4c3=O)CC2)c(OC)c1 [Example 30, 3,4-Dihydro-5-methyl-6-dimethylcarbamoyl-3-[2-(4-(2,4-dimethoxyphenyl)piperazin-1-yl)ethyl]thieno-[2,3-d]pyrimidin-4-one] | 170 to 171 °C |
| Cc1ccc(C)c(N2CCN(CCn3cnc4sc(C(=O)N(C)C)c(C)c4c3=O)CC2)c1 [Example 31, 3,4-Dihydro-5-methyl-6-dimethylcarbamoyl-3-[2-(4-(2,5-dimethylphenyl)piperazin-1-yl)ethyl]thieno-[2,3-d]pyrimidin-4-one] | 90 to 91 °C |
| CN1CCc2c(sc3ncn(CCCN4CCN(c5ncccn5)CC4)c(=N)c23)C1 [Example 36, 3,4,5,6,7,8-Hexahydro-7-methyl-3-[3-(4-pyrimidin-2-yl-piperazin-1-yl)propyl]pyrido[4′,3′:4,5]thieno[2,3-d]-pyrimidin-4-imine] | 161 to 163 °C |
| CN1CCc2c(sc3ncn(CCCN4CCN(c5ccccc5C#N)CC4)c(=N)c23)C1 [Example 37, 3,4,5,6,7,8-Hexahydro-7-methyl-3-[3-(4-(2-cyanophenyl)-piperazin-1-yl)propyl]pyrido[4′,3′:4,5]thieno[2,3-d]-pyrimidin-4-imine] | 148 to 150 °C |
| CCOC(=O)N1Cc2sc3ncn(CCN4CCN(c5ccccc5C)CC4)c(=O)c3c2C1 [Example 38, 3,4,5,7-Tetrahydro-6-carboethoxy-3-[2-(4-(2-methylphenyl)-piperazin-1-yl)ethyl]pyrrolo[3′,4′:4,5]thieno-[2,3-d]pyrimidin-4-one] | 152 °C |
| CCOC(=O)N1Cc2sc3ncn(CC(C)N4CCN(c5ccccc5Cl)CC4)c(=O)c3c2C1 (stereo not shown) [Example 39, 3,4,5,7-Tetrahydro-6-carboethoxy-3-[2-(4-(2-chlorophenyl)-piperazin-1-yl)propyl]pyrrolo[3′,4′:4,5]thieno-[2,3-d]pyrimidin-4-one] | 172 °C |
| CCOC(=O)N1Cc2sc3ncn(CCCN4CCN(c5ccccc5C#N)CC4)c(=O)c3c2C1 [Example 43, 3,4,5,7-Tetrahydro-6-carboethoxy-3-[3-(4-(2-cyanophenyl)-piperazin-1-yl)propyl]pyrrolo[3′,4′:4,5]thieno[2,3-d]-pyrimidin-4-one] | 190 °C |
| Cc1cccc(N2CCN(CCn3cnc4sc5c(c4c3=O)CCN(C)C5)CC2)c1C [Example 44, 3,4,5,6,7,8-Hexahydro-7-methyl-3-[2-(4-(2,3-dimethylphenyl)-piperazin-1-yl)ethyl]pyrido[4′,3′:4,5]thieno[2,3-d]pyrimidin-4-one] | 163 to 167 °C |
| CCOC(=O)N1Cc2sc3ncn(CCN4CCN(c5cccc6c5CCC6)CC4)c(=O)c3c2C1 [Example 44, 3,4,5,7-Tetrahydro-6-carboethoxy-3-[2-(4-indan-4-ylpiperazin-1-yl)ethyl]pyrrolo[3′,4′:4,5]thieno[2,3-d]pyrimidin-4-one] | 149 °C |
| CN1CCc2c(sc3ncn(CCN4CCN(c5cc(Cl)cc(Cl)c5)CC4)c(=O)c23)C1 [Example 46, 3,4,5,6,7,8-Hexahydro-7-methyl-3-[2-(4-(3,5-dichlorophenyl)-piperazin-1-yl)ethyl]pyrido[4′,3′:4,5]thieno[2,3-d]pyrimidin-4-one] | 97 to 100 °C |
| CN1CCc2c(sc3ncn(CCCN4CCN(c5ncccn5)CC4)c(=O)c23)C1 [Example 64, 3,4,5,6,7,8-Hexahydro-7-methyl-3-[3-(4-pyrimidin-2-yl-piperazin-1-yl)propyl]pyrido[4′,3′:4,5]thieno[2,3-d]-pyrimidin-4-one] | 161 to 163 °C |
| CN1CCc2c(sc3ncn(CCN4CCN(c5ccc6ccccc6n5)CC4)c(=O)c23)C1 [Example 65, 3,4,5,6,7,8-Hexahydro-7-methyl-3-[2-(4-quinolin-2-yl-piperazin-1-yl)ethyl]pyrido[4′,3′:4,5]thieno[2,3-d]-pyrimidin-4-one] | 143 to 145 °C |

From patent US6387912B1, “Utilization of pyrimidine derivatives for preventing and treating cerebral ischaemia” (BASF Aktiengesellschaft, priority 1999, dated 2002)
